According to PMC8036603, “Small Molecule Inhibitors of White Spot Syndrome Virus: Promise in Shrimp Seedling Culture” (International Journal of Molecular Sciences, 2021):
In brackets after ≈: the same amount, converted by molar mass. Like-named read-outs stand apart in the source and are kept apart here.

Tests used:
[1] = Acute toxicity assay in shrimp larvae; type: in vivo, Litopenaeus vannamei; settings: Litopenaeus vannamei (shrimp) larvae, in vivo, other: immersion of larvae in test solutions, 28 °C, 95% CI in brackets; for LC50 at 24 h: 24 h exposure, read-out: LC50 (mg/L; 95% CI) 24 h; for LC50 at 48 h: 48 h exposure, read-out: LC50 (mg/L; 95% CI) 48 h; for LC50 at 72 h: 72 h exposure, read-out: LC50 (mg/L; 95% CI) 72 h
Description: (§1) Shrimp (L. vannamei) larvae (total length: 0.5 ± 0.04 cm, body weight: 4.2 ± 0.4 mg, mean ± SD) were provided by Zhejiang Mariculture Research Institute Qingjiang Station (Wenzhou, China). The larvae were maintained in a culture pond at 28 °C, fed four times a day with commercial feed pellets, and collected randomly for PCR testing to verify the WSSV-free status prior to the trial.
(§2) Acute toxicity of the coumarin derivatives was investigated by exposing larvae to a range of compound concentrations, from 0.1 mg/L to 100 mg/L of coumarin derivatives, where the dose setting was based on the data from preliminary tests in our laboratory. A DMSO-control (2%, v/v, the highest percentage of DMSO in treatments) served as the control. During the experiment, every 20 larvae were moved into six-well plates filled with 6 mL/per well freshly prepared test solutions for a 72-h incubation at 28 °C with a natural photoperiod. […] To avoid deterioration of water quality, dead shrimps were immediately removed at the point of observation. Three replicate experiments were performed.
(§3) Compound response curves were represented by a logistic sigmoidal function with a maximal effect level (Amax) and Hill coefficient representing the sigmoidal transition (Origin 8.1; http://www.originlab.com, accessed on 25 March 2021). Statistical analyses were performed using SPSS (version 18.0) statistical software (SPSS Inc., Chicago, IL, USA). The LC50 and EC50 values with 95% CIs were calculated using probit analysis. Virus titers were log10-transformed prior to statistical analyses. Unpaired Student’s t-tests were used to compare coumarin-treated samples and negative-control DMSO samples for determining significance and data are presented as mean values ± SD.

[2] = tested on: white spot syndrome virus (WSSV); experiment: Anti-WSSV activity in shrimp larvae, co-incubation, copy number of viral genome by RT-qPCR; type: in vivo, Litopenaeus vannamei
[3] = Solubility / precipitation in aquacultural water; type: physicochemical; settings: for lowest precipitation concentration / lowest precipitation concentration (bracketed value in LC50 48 h column) / lowest precipitation concentration (bracketed value in LC50 72 h column): test range 0.4~100 mg/L, aquacultural water, LC50 NONE
Description: Prior to evaluation of the anti-WSSV activity of coumarins, the safety doses for larvae needed to be determined. […] In contrast, the electron-withdrawing group was more toxic than the electron-donating group, with the LC50 of A5‒A8 being <5 mg/L at 72 h. […] Based on preliminary analysis of the structure-activity relationship (SAR) of similar spatial structures with different substituents of electron-donating and electron-withdrawing groups to coumarins A1, B1, and C1, we considered that […] of compounds; this provides a basis for further research.
All conventional reagents and solvents are purchased directly from commercial companies and no further purification is required. Organic solvents were purchased from Sinopharm chemical reagent Co., Ltd. and purified by distillation and moisture was excluded from the glass apparatus using CaCl2 drying tubes. Throughout this study, silica gel H (200–300 mesh; Qingdao Marine Chemical Factory, Qingdao, China) was used for the column chromatography. For thin layer chromatographic (TLC) plates, Silica gel (GF254) (Qingdao Marine Chemical Factory, Qingdao, China) were used for thin layer chromatographic (TLC) analysis, and all of the spots and bands were detected by UV irradiation (254, 365 nm). The intermediates and products were characterized by electrospray ionization mass spectrometry (TripleTOF5600þ; AB SCIEX Pte. Ltd., Boston, MA, USA), ^1H NMR and ^13C NMR (Bruker AM500 spectrometer; Bruker Corporation, Berne, Switzerland). The derivatives were dissolved in 100% dimethyl sulfoxide (DMSO; Beyotime Biotechnology, Haimen, China), stored at 4 °C prior to antiviral evaluation, and used within 6 months. For solubility, the stock solutions, at a concentration of 50 mg/mL, were sonicated for approximately 10 min to ensure that the derivatives were fully dissolved and mixed.

[4] = tested on: Shrimp (L. vannamei) larvae; experiment: Acute toxicity assay in shrimp larvae; type: in vivo, Litopenaeus vannamei; settings: after 72 h of exposure
Description: as §1, §2, §3

[5] = tested on: white spot syndrome virus (WSSV); settings: cited from earlier work
[6] = Whispovirus xiabaidian, 72 h, WSSV-infected larvae, copy number of viral genome, 72 h; 95% CI in brackets; read-out: EC50 (mg/L; 95% CI), median effective concentration
[7] = WSSV-infected larvae, copy number of viral genome, 72 h; 95% CI in brackets
[8] = Whispovirus xiabaidian, 72 h, read-out: EC50 (mg/L; 95% CI), median effective concentration, WSSV-infected larvae, copy number of viral genome, 72 h; 95% CI in brackets
[9] = six-point dose-response, viral genome copy number in larvae

| Structure (SMILES) | LC50 at 24 h [1] [mg/L] | LC50 at 48 h [1] [mg/L] | LC50 at 72 h [1] [mg/L] | also measured |
| --- | --- | --- | --- | --- |
| O=C1Nc2c(c(=O)oc3ccccc23)C(c2ccccc2)N1 (centres unmarked) [A1, 4-phenyl-3,4-dihydro-2H-chromeno[4,3-d]pyrimidine-2,5(1H)-dione] | 95.5 (≈ 327 µM) | 71.4 (≈ 244 µM) | 32.5 (≈ 111 µM) | EC50 [2, 6]: 21.5 mg/L |
| Cc1ccc(C2NC(=O)Nc3c2c(=O)oc2ccccc32)cc1 (centres unmarked) [A2, 4-(p-tolyl)-3,4-dihydro-2H-chromeno[4,3-d]pyrimidine-2,5(1H)-dione] | 15 (≈ 49 µM) | 14.3 (≈ 46.6 µM) | 10 (≈ 32.7 µM) | EC50 (mg/L; 95% CI), median effective concentration [2, 7]: 05.037 (4.076~7.593) mg/L; EC50 [2, 6]: < 10 mg/L |
| COc1ccc(C2NC(=O)Nc3c2c(=O)oc2ccccc32)cc1 (centres unmarked) [A3, 4-(4-methoxyphenyl)-3,4-dihydro-2H-chromeno[4,3-d]pyrimidine-2,5(1H)-dione] | 26.9 (≈ 83.4 µM) | 24.5 (≈ 76 µM) | 21.1 (≈ 65.5 µM) | EC50 [2, 6]: 14.9 mg/L |
| O=C1Nc2c(c(=O)oc3ccccc23)C(c2ccc(O)cc2)N1 (centres unmarked) [A4, 4-(4-hydroxyphenyl)-3,4-dihydro-2H-chromeno[4,3-d]pyrimidine-2,5(1H)-dione] |  |  |  | lowest precipitation concentration [3]: NONE (50) mg/L; lowest precipitation concentration (bracketed value in LC50 48 h column) [3]: NONE (50) mg/L; lowest precipitation concentration (bracketed value in LC50 72 h column) [3]: NONE (50) mg/L; EC50 [2, 8]: 21.7 mg/L; inhibitory efficiency on WSSV replication [2, 9]: exceeded 90% |
| O=C1Nc2c(c(=O)oc3ccccc23)C(c2ccc(F)cc2)N1 (centres unmarked) [A5, 4-(4-fluorophenyl)-3,4-dihydro-2H-chromeno[4,3-d]pyrimidine-2,5(1H)-dione] | 16.6 (≈ 53.6 µM) | 11.7 (≈ 37.9 µM) | 10.1 (≈ 32.4 µM) | EC50 (mg/L; 95% CI), median effective concentration [2, 7]: 08.416 (7.137~11.317) mg/L; EC50 [2, 6]: < 10 mg/L |
| O=C1Nc2c(c(=O)oc3ccccc23)C(c2ccc(Cl)cc2)N1 (centres unmarked) [A6, 4-(4-chlorophenyl)-3,4-dihydro-2H-chromeno[4,3-d]pyrimidine-2,5(1H)-dione] | 2.58 (≈ 7.91 µM) | 2.48 (≈ 7.59 µM) | 2.35 (≈ 7.18 µM) |  |
| O=C1Nc2c(c(=O)oc3ccccc23)C(c2ccc(Br)cc2)N1 (centres unmarked) [A7, 4-(4-bromophenyl)-3,4-dihydro-2H-chromeno[4,3-d]pyrimidine-2,5(1H)-dione] | 14.1 (≈ 38.1 µM) | 5.68 (≈ 15.3 µM) | 3.37 (≈ 9.07 µM) |  |
| O=C1Nc2c(c(=O)oc3ccccc23)C(c2ccc([N+](=O)[O-])cc2)N1 (centres unmarked) [A8, 4-(4-nitrophenyl)-3,4-dihydro-2H-chromeno[4,3-d]pyrimidine-2,5(1H)-dione] | 8.76 (≈ 26 µM) | 3.43 (≈ 10.2 µM) | 1.61 (≈ 4.79 µM) |  |
| N#Cc1ccc(C2NC(=O)Nc3c2c(=O)oc2ccccc32)cc1 (centres unmarked) [A9, 4-(2,5-dioxo-1,3,4,5-tetrahydro-2H-chromeno[4,3-d]pyrimidin-4-yl)benzonitrile] | 19.8 (≈ 62.5 µM) | 18 (≈ 56.6 µM) | 7.33 (≈ 23.1 µM) |  |
| O=c1oc2ccccc2c2c1C(c1ccccc1)NC(=S)N2 (centres unmarked) [B1, 4-phenyl-2-thioxo-1,2,3,4-tetrahydro-5H-chromeno[4,3-d]pyrimidin-5-one] | 15 (≈ 48.7 µM) | 12.8 (≈ 41.4 µM) | 10.5 (≈ 34.2 µM) |  |
| Cc1ccc(C2NC(=S)Nc3c2c(=O)oc2ccccc32)cc1 (centres unmarked) [B2, 2-thioxo-4-(p-tolyl)-1,2,3,4-tetrahydro-5H-chromeno[4,3-d]pyrimidin-5-one] | 23.9 (≈ 74 µM) | 18.6 (≈ 57.6 µM) | 14.7 (≈ 45.5 µM) |  |
| COc1ccc(C2NC(=S)Nc3c2c(=O)oc2ccccc32)cc1 (centres unmarked) [B3, 4-(4-methoxyphenyl)-2-thioxo-1,2,3,4-tetrahydro-5H-chromeno[4,3-d]pyrimidin-5-one] | 66.2 (≈ 196 µM) | 64.1 (≈ 189 µM) | 41.7 (≈ 123 µM) | EC50 [2, 6]: 25.6 mg/L |
| O=c1oc2ccccc2c2c1C(c1ccc(O)cc1)NC(=S)N2 (centres unmarked) [B4, 4-(4-hydroxyphenyl)-2-thioxo-1,2,3,4-tetrahydro-5H-chromeno[4,3-d]pyrimidin-5-one] |  |  |  | lowest precipitation concentration [3]: NONE (50) mg/L; lowest precipitation concentration (bracketed value in LC50 48 h column) [3]: NONE (50) mg/L; lowest precipitation concentration (bracketed value in LC50 72 h column) [3]: NONE (50) mg/L; EC50 [2, 8]: 22.6 mg/L; inhibitory efficiency on WSSV replication [2, 9]: exceeded 90% |
| O=c1oc2ccccc2c2c1C(c1ccc(F)cc1)NC(=S)N2 (centres unmarked) [B5, 4-(4-fluorophenyl)-2-thioxo-1,2,3,4-tetrahydro-5H-chromeno[4,3-d]pyrimidin-5-one] | 16.6 (≈ 50.7 µM) | 8.87 (≈ 27.2 µM) | 8.4 (≈ 25.7 µM) |  |
| O=c1oc2ccccc2c2c1C(c1ccc(Cl)cc1)NC(=S)N2 (centres unmarked) [B6, 4-(4-chlorophenyl)-2-thioxo-1,2,3,4-tetrahydro-5H-chromeno[4,3-d]pyrimidin-5-one] | 8.85 (≈ 25.8 µM) | 6.63 (≈ 19.3 µM) | 4.5 (≈ 13.1 µM) |  |
| O=c1oc2ccccc2c2c1C(c1ccc(Br)cc1)NC(=S)N2 (centres unmarked) [B7, 4-(4-bromophenyl)-2-thioxo-1,2,3,4-tetrahydro-5H-chromeno[4,3-d]pyrimidin-5-one] | 10 (≈ 25.9 µM) | 4.81 (≈ 12.4 µM) | 4.46 (≈ 11.5 µM) |  |
| O=c1oc2ccccc2c2c1C(c1ccc([N+](=O)[O-])cc1)NC(=S)N2 (centres unmarked) [B8, 4-(4-nitrophenyl)-2-thioxo-1,2,3,4-tetrahydro-5H-chromeno[4,3-d]pyrimidin-5-one] | 13.6 (≈ 38.3 µM) | 7.48 (≈ 21.2 µM) | 3.06 (≈ 8.65 µM) |  |
| N#Cc1ccc(C2NC(=S)Nc3c2c(=O)oc2ccccc32)cc1 (centres unmarked) [B9, 4-(5-oxo-2-thioxo-1,3,4,5-tetrahydro-2H-chromeno[4,3-d]pyrimidin-4-yl)benzonitrile] | 37.1 (≈ 111 µM) | 31.5 (≈ 94.5 µM) | 9.63 (≈ 28.9 µM) |  |
| N#CC1=C(N)Oc2c(c(=O)oc3ccccc23)C1c1ccccc1 (centres unmarked) [C1] | 18.4 (≈ 58.2 µM) | 16.6 (≈ 52.6 µM) | 9.18 (≈ 29 µM) | EC50 [2, 8]: 2.9 mg/L |
| COc1ccc(C2C(C#N)=C(N)Oc3c2c(=O)oc2ccccc32)cc1 (centres unmarked) [C3] | 22.3 (≈ 64.5 µM) | 17.3 (≈ 50 µM) | 17.3 (≈ 50 µM) | EC50 [2, 8]: 14.8 mg/L |
| N#CC1=C(N)Oc2c(c(=O)oc3ccccc23)C1c1ccc(O)cc1 (centres unmarked) [C4] |  |  |  | EC50 [2, 6]: 61.2 mg/L; inhibitory efficiency on WSSV replication [2, 9]: exceeded 90% |
| N#CC1=C(N)Oc2c(c(=O)oc3ccccc23)C1c1ccc(F)cc1 (centres unmarked) [C5] |  |  |  | lowest precipitation concentration [3]: NONE (16) mg/L; lowest precipitation concentration (bracketed value in LC50 48 h column) [3]: NONE (16) mg/L; lowest precipitation concentration (bracketed value in LC50 72 h column) [3]: NONE (16) mg/L; solubility in aquacultural water ([3]; tested concentration 16 mg/L, 28 °C): insoluble; signs of toxicity at the saturation concentration [4]: No signs of toxicity were observed; EC50 [2, 8]: 8.82 mg/L; inhibitory efficiency on WSSV replication [2, 9]: exceeded 90% |
| N#CC1=C(N)Oc2c(c(=O)oc3ccccc23)C1c1ccc(Cl)cc1 (centres unmarked) [C6] |  | 44.2 (≈ 126 µM) | 17.7 (≈ 50.4 µM) | EC50 [2, 8]: 8.54 mg/L; inhibitory efficiency on WSSV replication [2, 9]: exceeded 90% |
| N#CC1=C(N)Oc2c(c(=O)oc3ccccc23)C1c1ccc(C#N)cc1 (centres unmarked) [C9] |  |  |  | EC50 [2, 8]: 60.5 mg/L |
| C=CCN1C(=O)/C(=C/c2ccc(-c3ccccc3)o2)SC1=S [LJ001] |  |  |  | half-life in aquaculture water [5]: less than 2 days |
| C=CCN1C(=O)S/C(=C\c2ccc(-c3ccccc3)o2)C1=O [LJ025] |  |  |  | half-life in aquaculture water [5]: less than 2 days |
